Experimental findings from ChEMBL document CHEMBL1155381, “Optimization of 5-vinylaryl-3-pyridinecarbonitriles as PKCtheta inhibitors” (Bioorg Med Chem Lett, 2010) are described below.

Series [1] can be described thus: Aqueous solubility of compound. In kind it is physicochemical. Particulars: buffer.
A short description of series [2]: Permeability by PAMPA. In kind it is ADME. Particulars: read-out: permeability. Background: The PAMPA barrier holds no transporters, so it reflects passive diffusion.
Series [3] can be described thus: Cmax in NZBWF1/J mouse at 25 mg/kg, po. In kind it is ADME, organism-based. Further details: dose 25 mg/kg, route oral. Particulars: in vivo.
Series [4] can be described thus: AUC in NZBWF1/J mouse at 25 mg/kg, po. Particulars: plasma. Type of series: ADME, organism-based. Further details: dose 25 mg/kg, route oral.
In series [5] the test system is Mus musculus. Briefly: Cavg in NZBWF1/J mouse at 25 mg/kg, po. Further details: dose 25 mg/kg, route oral. In kind it is ADME, organism-based. Particulars: in vivo.

Usually solubility stands for how much of the substance goes into solution per volume. Low readings indicate a poorly soluble substance, high ones a readily soluble substance. As usually defined, the Cmax is the highest concentration seen after dosing. The term AUC denotes concentration integrated over time. A lower AUC goes with less exposure.

Each structure is given as a SMILES string. Converted amounts (≈) assume the structure as drawn.

`Cc1c(Nc2c(C#N)cncc2/C=C/c2cccc(CN3CCN(C)CC3)n2)ccc2[nH]ccc12` yielded a solubility in series [1] of 61 µg/mL (≈ 132 µM). In addition, in series [2], the Papp was determined as 0.39 ×10⁻⁶ cm/s. This compound also returned a Cmax in series [3] of 2200 nM. In series [4], this compound displayed an AUC of 17.8 µM·h. Further, the Drug uptake in series [5] was determined as 740 nM.
